The subject of data set [1] is multicatalytic protease. Nature of the data set: multicatalytic protease purified from human brain. The note with it: 37°C.
Data set [2] concerns chymase. Nature of the data set: human brain chymase purified from human cerebral cortex. The note with it: 37°C.
Data set [3] has as its system chymotrypsin. Put plainly: chymotrypsin (Fig. 6 panel B). The note with it: 37°C.
In data set [4] the test system is chymase. Nature of the data set: purified rat brain chymase. The note with it: 37°C.
The test system of data set [5] is cathepsin G. Nature of the data set: cathepsin G (Fig. 6 panel C). The note with it: 37°C.
Data set [6] deals with human brain multicatalytic protease. Format: biochemical. The note with it: qualitative, no concentration stated. The method, then:
(§1) During the various protease purification steps, protease activity of all fractions was measured using chromogenic or fluorogenic peptide analogs as substrates. Other methods are available, known to those skilled in the art. One specific example of an activity measurement is described here. Protease activity assays were performed in 96 well microtiter plates, in a total volume of 0.2 mls. Substrates were prepared as 10-20X concentrated stock solutions in DMSO. Therefore, each reaction contained 5-10% DMSO. Reactions were initiated by addition of protease-containing samples to wells already containing substrates, and were maintained at 37°C. Control wells received either protease without substrate, or substrate without protease. The release of reporter moities by proteolytic cleavage was followed as a function of time by either spectrophotometry (e.g., for pNa substrates, change in absorbance with time at 405 nm) or fluorimetry (e.g., for AMC substrates, change in fluorescence with time using excitation at 390 nm and emission at 460 nm). Maximum velocity of reactions was determined while substrate hydrolysis increased linearly as a function of time.
Human cerebral cortex (courtesy National Neurological Research Bank, Los Angeles, CA.) was obtained at autopsy and stored at -70°C until use. All procedures were conducted at 4 °C unless noted otherwise. […] Triton X-100 was added to 0.5%, the homogenate was stirred for 1 hr., then centrifuged at 40,000 x g for 1 hr. The supernatant, containing the multicatalytic protease, was dialyzed against 20 mM Tris-HCl (pH 8.0),1% glycerol. The following day, the dialysate was loaded on a column (150 ml bed volume) of DEAE-Sepharose Fast Flow (Pharmacia, Piscataway, N.J.) equilibrated in the dialysis buffer. Unbound material was removed with ∼300 mls dialysis buffer, then bound material was eluted with a linear NaCl gradient from 0 mM to 400 mM (1.5 liters total). Fractions of 15 ml were collected and assayed for multicatalytic protease activity (see below).

Data set [7] addresses T1, chymase (Rattus norvegicus, UniProt P09650).
T1 construct: Starting from 18g rat brain, approximately 10µg homogeneous chymase was obtained; from tissue; host or cells: rat forebrain (5-7 day old pups)
T1 sequence (P09650 21-260): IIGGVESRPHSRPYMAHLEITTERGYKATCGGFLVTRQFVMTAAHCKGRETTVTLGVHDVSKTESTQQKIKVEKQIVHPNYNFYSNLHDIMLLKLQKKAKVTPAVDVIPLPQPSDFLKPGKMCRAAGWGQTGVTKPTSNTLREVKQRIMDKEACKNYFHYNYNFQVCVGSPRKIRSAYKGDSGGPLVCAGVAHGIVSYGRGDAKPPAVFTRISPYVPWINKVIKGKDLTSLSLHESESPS
Nature of the data set: Inhibition of purified brain chymase (pNa substrate hydrolysis). Format: biochemical. The method, then:
as §1

Data set [8] has as its system chymotrypsin. Put plainly: Substrate cleavage by chymotrypsin. In kind it is biochemical. The method, then:
as §1
(§2) Contrary to expectation, not all chymotrypsin-like proteases were able to cleave MeOSuc-Glu-Val-Lys-Met-pNa (Figure 6; EVKM using the one letter amino acid code). […]

For data set [9], the target named is T2, cathepsin G (Homo sapiens, UniProt P08311).
T2 sequence (P08311 21-255): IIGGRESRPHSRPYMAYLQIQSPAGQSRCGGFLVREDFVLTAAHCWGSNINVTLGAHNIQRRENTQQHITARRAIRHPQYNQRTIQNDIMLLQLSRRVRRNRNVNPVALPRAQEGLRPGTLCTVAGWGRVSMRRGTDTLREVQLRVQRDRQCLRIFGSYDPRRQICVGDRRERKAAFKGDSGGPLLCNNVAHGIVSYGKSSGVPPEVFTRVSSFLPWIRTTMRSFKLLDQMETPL
Put plainly: Substrate cleavage by cathepsin G. Format: biochemical. The method, then: as §1, §2

Data set [10] concerns the target T1, chymase. Put plainly: Substrate cleavage by brain chymase. In kind it is biochemical. As to the method: as §1
The target of data set [11] is T3, multicatalytic protease (Homo sapiens, UniProt P28074).
T3 construct: Human cerebral cortex (courtesy National Neurological Research Bank, Los Angeles, CA.) was obtained at autopsy; from tissue; host or cells: human cerebral cortex, post mortem
Nature of the data set: Substrate cleavage by multicatalytic protease. Format: biochemical. The method, then:
as §1
Human cerebral cortex (courtesy National Neurological Research Bank, Los Angeles, CA.) was obtained at autopsy and stored at -70°C until use. All procedures were conducted at 4 °C unless noted otherwise. […]

The next data set has as its target T4, human brain chymase (Homo sapiens, UniProt P23946).
T4 sequence (P23946 22-247): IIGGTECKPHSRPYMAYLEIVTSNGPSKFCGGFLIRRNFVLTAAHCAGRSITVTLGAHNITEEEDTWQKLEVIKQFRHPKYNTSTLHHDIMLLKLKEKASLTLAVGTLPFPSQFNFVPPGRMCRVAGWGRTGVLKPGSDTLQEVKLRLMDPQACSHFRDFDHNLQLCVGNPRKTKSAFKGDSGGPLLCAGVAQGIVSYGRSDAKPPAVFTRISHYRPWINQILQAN

The subject of data set [12] is chymotrypsin. Put plainly: chymotrypsin. The note with it: 37°C.
Data set [13] deals with cathepsin G. Nature of the data set: cathepsin G. The note with it: 37°C.
The test system of data set [14] is chymase. Nature of the data set: Purified chymase. The note with it: rat, room temperature, up to 48 hrs.
The nature of data set [15]: high salt extract preparation (1 M MgCl2) of human brain samples.

Several values for one entry are separate records, joined by “and”; a condition that tells them apart may be missing. Equal values may be shown once. Entries after “also recorded” stand apart in the source; their conditions may differ. Read-outs that look alike come from different tables or passages of the source. Square brackets hold non-standard residues; d marks the D form. Peptide text beside a SMILES is read from it. * marks the point of attachment. Sta = CC(C)C[C@H](N)[C@@H](O)CC(=O)O; Isovaleryl = CC(C)CC(=O)*; MeOSuc = COC(=O)CCC(=O)*; CH2Cl = ClC*

On to MeOSuc-Glu-Val-Lys-Met-pNa, for which the cleaved bond result in the data set on multicatalytic protease [1], with chymase [2] and in the data set on chymase [4] was “Met-pNa” throughout. In addition, the not cleaved entry in the data set on chymotrypsin [3] and in the data set on cathepsin G [5] was “essentially without effect” each time.
Regarding `c1cnc2c(c1)ccc1cccnc12` [o-phenanthroline], the “inhibition of multicatalytic protease activity” value in [6] was “not”.
Still for that read-out and setting: as for `O=S(=O)(F)Cc1ccccc1` [phenylmethylsulfonylfluoride], the entry is “not”.
With `COC(=O)CCC(=O)N[C@@H](CCC(=O)O)C(=O)N[C@H](C(=O)N[C@@H](CCCCN)C(=O)N[C@@H](Cc1ccccc1)C(=O)CCl)C(C)C` (MeOSuc-EVKF-CH2Cl), the Ki on chymase [7] (Ki) is less than 20 nM.
Consider “methoxysuccinyl-glutamyl-valyl-lysyl-methionine-p-nitroanili de [MeOSuc-Glu-Val-Lys-Met-pNa]”, for which, in the data set on chymotrypsin [8], the “substrate cleavage by chymotrypsin” value is listed as “essentially without effect”. Also, the “substrate cleavage by cathepsin G” value on cathepsin G [9] is recorded as “essentially without effect”. Further, the “substrate cleavage by chymase” value on chymase [10] is reported as “readily degraded”. For the same compound, the “substrate cleavage by multicatalytic protease” value at multicatalytic protease [11] is given as “readily degraded; also recorded: unusual ability to cleave”. Moreover, the “substrate hydrolysis by human brain chymase” value at human brain chymase is reported as “hydrolyzed”.
With MeOSuc-Glu-Val-Lys-Phe-pNa, in the data set on chymase [4], the cleaved bond result is listed as “Phe-pNa”.
`CC(=O)N[C@@H](CC(C)C)C(=O)N[C@@H](CC(C)C)C(=O)N[C@H](C=O)CCCNC(=N)N` [leupeptin]: in data set [6], the “inhibition of multicatalytic protease activity” value is reported as “not”.
For the compound MeOSuc-Ala-Ala-Pro-Met-pNa, the cleaved bond entry in the data set with chymotrypsin [12], in the data set with cathepsin G [13] and in the data set with chymase [4] was “Met-pNa” each time.
In the case of `CC(C)CC(=O)N[C@H](C(=O)N[C@H](C(=O)N[C@@H](CC(C)C)[C@@H](O)CC(=O)N[C@@H](C)C(=O)N[C@@H](CC(C)C)[C@@H](O)CC(=O)O)C(C)C)C(C)C` [pepstatin] (Isovaleryl-VV[Sta]A[Sta]-OH), the “inhibition of multicatalytic protease activity” value in [6] was “not”.
For the compound Suc-Ala-Ala-Pro-Phe-pNa, the cleaved bond entry in the data set with chymase [2] and with chymase [4] was “Phe-pNa” throughout.
For “Glu-Val-Lys-Met-Asp-Ala-Glu-Phe-Arg-His-Asp-Ser-Gly-Tyr-Glu-Val-His-His-Gln”, the cleaved bond entry with chymase [14] was “Met596-Asp597, 45 minutes”.
On to MeOSuc-Ala-Ala-Pro-Phe-pNa, for which the cleaved bond result in data set [15] was “Phe-pNa”.
Consider `COC(=O)CCC(=O)N[C@@H](CCC(=O)O)C(=O)N[C@H](C(=O)N[C@@H](CCCCN)C(=O)N[C@H](C=O)Cc1ccccc1)C(C)C` [MeOSuc-Glu-Val-Lys-Phe-al, MeOSuc-Glu-Val-Lys-Phenylalaninal] (MeOSuc-EVKF-aldehyde), for which, at chymase [7] (read-out: Ki), the Ki is < 20 nM and 15 nM.
In the case of `CC(C)C[C@H](NC(=O)[C@@H](NC(=O)N[C@@H](Cc1ccccc1)C(=O)O)[C@@H]1CCN=C(N)N1)C(=O)N[C@H](C=O)Cc1ccccc1` [chymostatin], the “inhibition of multicatalytic protease activity” value in data set [6] is given as “inhibition”.

The Ki is a dissociation constant, usually derived from enzyme kinetics or from competition with a known ligand.

(Values after patent EP0732399A2 (CEPHALON, INC., priority 1990, dated 1991).)
